Values after ≈ are worked out from the molar mass of the structure shown. Values joined by “and” are separate entries in the source; they are usually repeats but may differ in a detail not shown here. Equal entries are not always repeated.

Data set [1] concerns CC(=O)OCC1=C(C(=O)O)N2C(=O)[C@@H](NC(=O)Cc3cccs3)[C@H]2SC1. The data set can be described thus: purified protein, by the assay type. The settings on record: other: SHV-1, substrate hydrolysis, PBS pH 7.4, room temperature.
For data set [2], the system named is CC1(C)S[C@@H]2[C@H](NC(=O)[C@H](N)c3ccccc3)C(=O)N2[C@H]1C(=O)O. The experiment in a line: purified protein, by the assay type. The following applies: other: SHV-1, substrate hydrolysis, PBS pH 7.4, room temperature.
Data set [3] has as its system CCN1CCN(C(=O)N[C@@H](C(=O)N[C@@H]2C(=O)N3[C@@H]2SC(C)(C)[C@@H]3C(=O)O)c2ccccc2)C(=O)C1=O. The experiment in a line: purified protein, by the assay type. The settings on record: other: SHV-1, substrate hydrolysis, PBS pH 7.4, room temperature.
Data set [4] concerns O=C(Cc1cccs1)N[C@@H]1C(=O)N2C(C(=O)O)=C(/C=C/c3ccc([N+](=O)[O-])cc3[N+](=O)[O-])CS[C@H]12. The experiment in a line: purified protein, by the assay type. The following applies: other: SHV-1, substrate hydrolysis, PBS pH 7.4, room temperature.
Data set [5] has as its system E. coli DH10B expressing SHV Asn276 variants. The data set can be described thus: MIC, agar dilution, all Asn276 variants taken together. The settings on record: for MIC of Asn276 variants compared to SHV-1: all Asn276 variants vs SHV-1, in words. A general note: In agar dilution the substance is mixed into plates at graded concentrations.
The target in data set [6] is T1, SHV-1 β-lactamase (Klebsiella pneumoniae, UniProt P0AD64). The data set can be described thus: biochemical.
Data set [7] concerns the target T2, SHV Asn276Asp β-lactamase (Klebsiella pneumoniae, UniProt P0AD64, N270D). The experiment in a line: Direct competition assay against nitrocefin. The format is biochemical. The following applies: for increase in Ki for Asn276Asp as compared to SHV-1: Asn276Asp vs SHV-1.
For data set [8], the target named is T1, SHV-1 β-lactamase. In kind it is biochemical.
Data set [9] has as its target T2, SHV Asn276Asp β-lactamase. The data set can be described thus: Inactivation kinetics. The format is biochemical. The settings on record: Asn276Asp vs SHV-1.
Data set [10] concerns the target T2, SHV Asn276Asp β-lactamase. The data set can be described thus: Partition ratio. The following applies: rate of inhibitor hydrolysis, calculated. In kind it is biochemical.
Data set [11] relates to E. coli DH10B expressing SHV Asn276Gln, -Glu, -Cys. The experiment in a line: microbe, parasite or virus in culture. The format is cell-based. The following applies: Escherichia coli.
Data set [12] relates to E. coli DH10B expressing SHV Asn276Pro, -Trp. The experiment in a line: microbe, parasite or virus in culture. The format is cell-based. The following applies: Escherichia coli.
Data set [13] relates to E. coli DH10B. The data set can be described thus: MIC, lysogeny broth agar dilution, host strain. The following applies: Escherichia coli.
The target of data set [14] is T2, SHV Asn276Asp β-lactamase. The data set can be described thus: Steady-state substrate hydrolysis kinetics, Asn276Asp. The format is biochemical. The following applies: for Km: PBS pH 7.4, room temperature.
For data set [15], the system named is E. coli DH10B expressing SHV Asn276Asp. The experiment in a line: microbe, parasite or virus in culture. In kind it is cell-based. The following applies: Escherichia coli.
For data set [16], the system named is E. coli DH10B expressing SHV Asn276Ser. The experiment in a line: microbe, parasite or virus in culture. The format is cell-based. The following applies: Escherichia coli.
For data set [17], the system named is E. coli DH10B expressing SHV-1. The data set can be described thus: MIC, agar dilution, strain expressing SHV-1. The settings on record: Escherichia coli.
The test system of data set [18] is E. coli DH10B expressing SHV Asn276His. The experiment in a line: microbe, parasite or virus in culture. In kind it is cell-based. The settings on record: Escherichia coli.
Data set [19] concerns E. coli DH10B expressing SHV Asn276Lys, -Arg, -Tyr, -Phe. The experiment in a line: microbe, parasite or virus in culture. The format is cell-based. The settings on record: Escherichia coli.
Data set [20] concerns E. coli DH10B expressing SHV Asn276Met. The data set can be described thus: microbe, parasite or virus in culture. In kind it is cell-based. The following applies: Escherichia coli.
The subject of data set [21] is E. coli DH10B expressing SHV Asn276Ala, -Leu, -Ile. The data set can be described thus: microbe, parasite or virus in culture. The settings on record: Escherichia coli. The format is cell-based.
Data set [22] deals with E. coli DH10B expressing SHV Asn276Thr. The data set can be described thus: microbe, parasite or virus in culture. The format is cell-based. The settings on record: Escherichia coli.
Data set [23] has as its system E. coli DH10B expressing SHV Asn276Val. The experiment in a line: microbe, parasite or virus in culture. The settings on record: Escherichia coli. The format is cell-based.
Data set [24] relates to E. coli DH10B expressing SHV Asn276Gly. The experiment in a line: microbe, parasite or virus in culture. The format is cell-based. The settings on record: Escherichia coli.

For orientation: Km means the concentration of substrate that gives half-maximal velocity. As a reminder, the kcat is the maximal rate divided by the concentration of active sites. The term kcat/Km denotes the second-order rate constant that governs catalysis at low substrate concentration. Take “SHV-1 β-lactamase (Klebsiella pneumoniae)”: the Km in [1] was found to be 29 ± 1 µM; in [2], 183 ± 34 µM; in data set [3], 77 ± 7 µM; in data set [4], 21 ± 3 µM. In addition, the kcat in [1] was 14 ± 1 s⁻¹; in [2], 3100 ± 300 s⁻¹; in data set [3], 898 ± 90 s⁻¹; in data set [4], 237 ± 24 s⁻¹. Further, the kcat/Km in data set [1] was 470000 ± 30000 M⁻¹ s⁻¹; in data set [2] it was 1.7e+07 ± 4e+06 M⁻¹ s⁻¹; in data set [3], 1.2e+07 ± 1e+06 M⁻¹ s⁻¹; in data set [4], 1.1e+07 ± 2e+06 M⁻¹ s⁻¹.

For orientation: Ki means the dissociation constant of the complex between target and ligand, obtained from inhibition or displacement. A high value points to weaker binding. On to `C[C@@H](O)[C@H]1C(=O)N2C(C(=O)O)=C(S[C@@H]3CN[C@H](C(=O)N(C)C)C3)[C@H](C)[C@H]12` [meropenem], for which the “MIC of Asn276 variants compared to SHV-1” value in data set [5] is on record as “comparable to SHV-1”. Also, the Ki came out at 31 ± 3 µM in data set [6] and 1411 ± 14 µM in data set [7] (Ki, Asn276Asp, competition with NCF, corrected for NCF affinity). In [7], the “increase in Ki for Asn276Asp as compared to SHV-1” value came out at 46 fold.

For `O=C(O)[C@H]1/C(=C/CO)O[C@@H]2CC(=O)N21` [clavulanate], the kcat is 0.60 ± 0.17 s⁻¹ in data set [8] and 0.75 ± 0.18 s⁻¹ in data set [10]. In data set [9], the “increase in KI for Asn276Asp as compared to SHV-1” value came to 1.6 fold. For the same compound, in [7], the “increase in Ki for Asn276Asp as compared to SHV-1” value was 5 fold and 5.4 fold.

Regarding `CC(=O)OCC1=C(C(=O)O)N2C(=O)[C@@H](NC(=O)Cc3cccs3)[C@H]2SC1` [cephalothin], the MIC is 8 to 16 µg/mL (≈ 20.2 to 40.4 µM) in [11]; 4 to 8 µg/mL (≈ 10.1 to 20.2 µM) in data set [12]; 4 µg/mL (≈ 10.1 µM) in data set [13]; 8 to 16 µg/mL (≈ 20.2 to 40.4 µM) in data set [15]; 16 µg/mL (≈ 40.4 µM) in data set [16]; 64 to 128 µg/mL (≈ 161 to 323 µM) in data set [17]. In addition, the MIC is 16 µg/mL (≈ 40.4 µM) in [18]; 4 to 8 µg/mL (≈ 10.1 to 20.2 µM) in [19]; 4 µg/mL (≈ 10.1 µM) in data set [20]; 4 to 8 µg/mL (≈ 10.1 to 20.2 µM) in [21]; 8 to 16 µg/mL (≈ 20.2 to 40.4 µM) in data set [22]; 16 µg/mL (≈ 40.4 µM) in data set [23]. For the same compound, in data set [24], the MIC came out at 16 µg/mL (≈ 40.4 µM). For the same compound, in data set [5] (each of the variants at Asn276), the “MIC, range over the variants at Asn276” value lay within 4 to 16 µg/mL. The kcat in data set [14] was found to be 10 ± 1 s⁻¹. Besides, the Km in [14] is 83 ± 11 µM.

Turning to `CCN1CCN(C(=O)N[C@@H](C(=O)N[C@@H]2C(=O)N3[C@@H]2SC(C)(C)[C@@H]3C(=O)O)c2ccccc2)C(=O)C1=O` [piperacillin], the MIC in [11] is 64 to 128 µg/mL (≈ 124 to 247 µM); in data set [12], 2 to 4 µg/mL (≈ 3.86 to 7.73 µM); in data set [13], 1 µg/mL (≈ 1.93 µM); in [15], 512 µg/mL (≈ 989 µM); in data set [16] it was 512 µg/mL (≈ 989 µM); in data set [17] it was 2050 µg/mL (≈ 3960 µM). Also, the MIC in [18] is 256 µg/mL (≈ 495 µM); in [19] it was 8 to 16 µg/mL (≈ 15.5 to 30.9 µM); in [20], 4 µg/mL (≈ 7.73 µM); in data set [21], 16 to 32 µg/mL (≈ 30.9 to 61.8 µM); in data set [22], 128 to 256 µg/mL (≈ 247 to 495 µM); in data set [23], 512 µg/mL (≈ 989 µM). Further, in [24], the MIC was determined as 256 µg/mL (≈ 495 µM). The kcat in [14] stood at 976 ± 98 s⁻¹. In [14], the Km is 105 ± 18 µM.

As for `CC1(C)S[C@@H]2[C@H](NC(=O)[C@H](N)c3ccccc3)C(=O)N2[C@H]1C(=O)O` [ampicillin], the MIC in data set [11] was 1020 to 2050 µg/mL (≈ 2930 to 5860 µM); in data set [12], 8 to 16 µg/mL (≈ 22.9 to 45.8 µM); in [13], 1 µg/mL (≈ 2.86 µM); in data set [15], 8190 µg/mL (≈ 23400 µM); in data set [16], 4100 µg/mL (≈ 11700 µM); in data set [17], above 16400 µg/mL. Besides, the MIC was 1020 µg/mL (≈ 2930 µM) in data set [18]; 64 µg/mL (≈ 183 µM) in data set [19]; 32 µg/mL (≈ 91.6 µM) in data set [20]; 256 to 512 µg/mL (≈ 733 to 1470 µM) in data set [21]; 1020 to 2050 µg/mL (≈ 2930 to 5860 µM) in [22]; 2050 µg/mL (≈ 5860 µM) in data set [23]. Further, the MIC in data set [24] was 4100 µg/mL (≈ 11700 µM). The kcat in data set [14] was found to be 989 ± 99 s⁻¹. Further, in data set [14], the Km came to 134 ± 13 µM.

Turning to `O=C(Cc1cccs1)N[C@@H]1C(=O)N2C(C(=O)O)=C(/C=C/c3ccc([N+](=O)[O-])cc3[N+](=O)[O-])CS[C@H]12` [Nitrocefin, nitrocefin], in data set [14], the kcat turned out to be 137 ± 14 s⁻¹ and the Km came out at 28 ± 3 µM.

For `CO/N=C(\C(=O)N[C@@H]1C(=O)N2C(C(=O)O)=C(COC(C)=O)CS[C@H]12)c1csc(N)n1` [cefotaxime], in data set [5], the “MIC of Asn276 variants compared to SHV-1” value is reported as “comparable to SHV-1”.

Values taken from PMC4030617 (Biochemistry, 2009).
